Reference: PMC3144702, “Structural and Functional Analysis of the Complex between Citrate and the Zinc Peptidase Carboxypeptidase A” (2011)

Tests used:
[1] = biological target: T1, carboxypeptidase A (Bos taurus, UniProt P00730); assay: X-ray crystal structure at […] Å; Ki from competitive inhibition assay with AAFP substrate; type: biochemical
T1 construct: gene CPA1
T1 sequence (P00730 111-419): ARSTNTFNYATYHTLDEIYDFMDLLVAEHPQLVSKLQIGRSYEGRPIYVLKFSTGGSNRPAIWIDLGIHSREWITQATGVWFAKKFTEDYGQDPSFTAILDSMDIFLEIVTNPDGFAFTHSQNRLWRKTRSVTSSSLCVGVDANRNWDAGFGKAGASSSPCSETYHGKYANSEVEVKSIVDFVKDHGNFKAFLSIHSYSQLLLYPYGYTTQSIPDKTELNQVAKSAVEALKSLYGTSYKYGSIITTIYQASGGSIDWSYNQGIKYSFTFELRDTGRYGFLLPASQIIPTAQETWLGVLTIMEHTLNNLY

[2] = biological target: T1, carboxypeptidase A; assay: competitive enzyme inhibition assay with AAFP substrate, absorbance; Ki from IC50 by Cheng-Prusoff; type: biochemical

O=C(O)CC(O)(CC(=O)O)C(=O)O [citrate]
Ki [1]: 5 mM

O=C(O)C[C@@H](Cc1ccccc1)C(=O)O [BzlSA, benzylsuccinic acid]
Ki [2]: 0.00052 mM
